Consider one compound from patent US6984619B1, “Method for protection against tumor metastasis formation” (Arch Development Corporation, priority 1999, dated 2006).

For one data set, the system named is angiostatin. In words: Blood angiostatin by Western blot in mice with or without SA-NH tumor. It counts as in vivo, C3Hf/Kam mice. The procedure: FIG. 2. SA-NH Murine Tumor. Tumor cells (3–5×10^5) were injected into right leg muscle of C3Hf/Kam male mice. Each group consisted of 5 mice. Mice were injected i.p. with 50 mg/kg of Amifostine (Ami) one day after innoculation with viable tumor and every third day (4 times) until amputation (Amp). When tumors grew to 8–9 mm in diameter, the tumor-bearing leg was amputated. Blood was collected using a 1 ml tuberculine syringe rinsed with EDTA (100 mg/ml) or heparin and placed in an EDTA-coated microcentrifuge tube and centrifuged at 250 rpm for 10 min. The resulting supernatants were collected and frozen at −70° C. until assayed for angiostatin by Western blot analysis.
Low non-cytoprotective doses of Amifostine, in the range of 50 to 100 mg/kg, were administered every other day for six days to C3Hf/Kam mice bearing SA-NH sarcomas and twice thereafter following the surgical removal of the tumors. […] Amifostine or its free thiol form designated WR-1065 was further evaluated regarding three processes implicated in the metastatic process. (FIG. 2).

The test system of data set [1] is hprt locus in splenocytes. As to conditions: mice; cited from earlier work.
The next data set concerns SA-NH. In words: Spontaneous lung metastasis assay, SA-NH sarcoma implanted i.m., leg amputated. It counts as in vivo, C3Hf/Kam mice. To be noted: for probability of developing spontaneous metastases (FIG. 1): 200, 100 or 50 mg/kg i.p., greater effects at the lower doses. The procedure: (§1) Animal system and experimental tumors. Experiments have been performed using C3Hf/Kam mice obtained from the University of Texas M.D. Anderson Cancer Center, Houston, Tex. Male mice were at least 110 days of age at the initiation of studies. Studies involving tumors included the use of two syngeneic adenocarcinomas (MCa-K and OCa-I,) and one sarcoma (SA-NH). Tumors were grown in the hind legs or flanks of animals. Single-cell suspensions of 5×10^5 viable tumor cells prepared from excised tumors were injected into the hind leg (spontaneous metastasis assay) or the lateral tail veins (artificial metastasis assay) of mice to develop pulmonary nodules (D. J. Grdina et al., 1974; D. J. Grdina et al., 1977; N. Suzuki et al., 1977; D. J. Grdina et al., 1978). For the spontaneous metastases studies, each thiol was administered on the first day following tumor cell inoculation, and then every third day until the tumor reaches 8.0 to 8.5 mm in diameter. At that time the tumor bearing leg is amputated and thiols were administered two and four days later. Twenty-three days following amputation, the animals were sacrificed, their lungs removed, fixed in Bouin's solution, and lung metastases counted. For the artificial metastases studies, mice were sacrificed 14 days after tumor cell inoculation and lung metastases counted (D. J. Grdina et al., 1974; D. J. Grdina et al., 1977; N. Suzuki et al., 1977; D. J. Grdina et al., 1978).
This tumor is p53 wild-type (R. Schimming et al., 1999). A tumor cell suspension containing 5×10^5 viable SA-NH cells was implanted i.m. into the right thighs of three month old male C3Hf/Kam mice. When tumors grew to 8 to 8.5 mm in diameter, each tumor bearing leg was amputated and the animals were then sacrificed 23 days later to assess both the incidence of mice developing metastases and numbers of spontaneous lung metastases formed per mouse. To assess the effects of amifostine on this process, different groups of mice were injected i.p. with 200, 100, or 50 mg/kg of WR-2721 according to the following protocol: drug administration on the first day following inoculation with tumor cells and then every third day until amputation with a final injection 2 days later.
Presented in Table 1 is a comparison of the effects of amifostine on the mean number of spontaneous metastases formed in the lungs of mice. Table 2 presents data regarding the effects of amifostine on affecting the incidence of metastasis formation using these tumor systems. The level of significance was determined using a t-test for binomial proportions (Walpole and Myers, 1978). Treatment of animals with 50 mg/kg of amifostine reduced the incidence of spontaneous metastasis development by these tumors at a level of significance of p<0.025.

The next data set relates to OCa-I. In words: Spontaneous lung metastasis assay, OCa-I adenocarcinoma. It counts as in vivo, C3Hf/Kam mice. As to conditions: 50 mg/kg WR-2721, OCa tumor. The procedure:
as §1, with “For the spontaneous metastases studies, each thiol was administered on the first day following tumor cell inoculation, and then every third day until the tumor reaches 8.0 to 8.5 mm in diameter. At that time the tumor bearing leg is amputated and thiols were administered two and four days later.” left out
(§2) Presented in Table 1 is a comparison of the effects of amifostine on the mean number of spontaneous metastases formed in the lungs of mice. […] The level of significance was determined using a t-test for binomial proportions (Walpole and Myers, 1978). […]

For data set [2] the following is noted: cited from earlier work.
For data set [3] the following is noted: C3H mouse system; cited from earlier work.
The subject of another data set is MCa-K. In words: Spontaneous lung metastasis assay, MCa-K adenocarcinoma. As to conditions: 50 mg/kg WR-2721, MCaK tumor. It counts as in vivo, C3Hf/Kam mice. The procedure: as §1, with “For the spontaneous metastases studies, each thiol was administered on the first day following tumor cell inoculation, and then every third day until the tumor reaches 8.0 to 8.5 mm in diameter. At that time the tumor bearing leg is amputated and thiols were administered two and four days later.” left out
as §2

Data set [4] can be described thus: Blood level of WR-2721 in mice. The class given is in vivo. To be noted: 400 mg/kg dose. The procedure:
It is also understood that uptake after is species and organ/tissue dependent. The applicable conversion factors and physiological assumptions to be made concerning uptake and concentration measurement are well-known and would permit those of skill in the art to convert one concentration measurement to another and make reasonable comparisons and conclusions regarding the doses, afficacies and results described herein. By way of example only, in mice given 100 mg/kg WR-2721, 30-minute blood levels are reported at 49 micrograms/ml or 0.23 mM. Accordingly, a 400 mg/kg dose would correspond to a concentration of WR-2721 of about 1.0 mM. Likewise, a human subject given about 740 mg/m^2 of WR-2721 (by IV infusion) would have an initial plasma level at about 100 micromol/liter or 0.1 mM.

Each structure is given as a SMILES string. Where two headings read alike, the source gives them in different places.

For `NCCCNCCSP(=O)(O)O` [WR-2721, S-2-(3-aminopropylamino)ethyl phosphorothioic acid], the “enhancement of angiostatin levels found in control mice” value in the data set with angiostatin (Amifostine injections, 50 mg/kg i.p. (FIG. 2)) is reported as “four-fold”. The “angiostatin level after removal of tumors” value with angiostatin (continued Amifostine treatment following tumor removal) is “equal to presurgery levels”. Further, the “induction of angiostatin production” value in the data set on angiostatin (tumor-free and tumor-bearing mice (FIG. 2)) is on record as “effective in inducing angiostatin production”. For the same compound, the “doses at which the antimutagenic effect diminishes” value in data set [1] is “less than 10 mg/kg”. The “number of spontaneous metastases (mean ± s.e.)” value is reported as 2.9 ± 1.1 with SA-NH (50 mg/kg WR-2721 i.p., lung metastases per mouse, Sa-NH tumor); 0.5 ± 0.14 in the data set with OCa-I; 1.7 ± 1.3 in the data set with MCa-K. In addition, the “reduction in the development of spontaneous metastases in the lungs” value with SA-NH (50 to 100 mg/kg every other day for six days and twice after surgical removal of tumor) is on record as “four-fold”. Also, the “probability of developing spontaneous metastases (FIG. 1)” value is “actually reduced it” in the data set with SA-NH (listed as Amifostine) and “reduces the chances of developing spontaneous metastases” in the data set with SA-NH (listed as amifostine). Further, the net charge result was “+4” in data set [2] (disulfide form) and “+2” in data set [2] (thiol form). Moreover, the “cytoprotection at doses below 100 mg/kg” value in data set [3] is “completely ineffective”. The “dose required for maximum cytoprotection” value in data set [3] is reported as 400 mg/kg. In data set [4], the “concentration of WR-2721 corresponding to dose” value is reported as “about 1.0 mM”.
